Target: T1, NAD(+) hydrolase SARM1 (Homo sapiens, UniProt Q6SZW1)
T1 sequence (Q6SZW1 whole entry): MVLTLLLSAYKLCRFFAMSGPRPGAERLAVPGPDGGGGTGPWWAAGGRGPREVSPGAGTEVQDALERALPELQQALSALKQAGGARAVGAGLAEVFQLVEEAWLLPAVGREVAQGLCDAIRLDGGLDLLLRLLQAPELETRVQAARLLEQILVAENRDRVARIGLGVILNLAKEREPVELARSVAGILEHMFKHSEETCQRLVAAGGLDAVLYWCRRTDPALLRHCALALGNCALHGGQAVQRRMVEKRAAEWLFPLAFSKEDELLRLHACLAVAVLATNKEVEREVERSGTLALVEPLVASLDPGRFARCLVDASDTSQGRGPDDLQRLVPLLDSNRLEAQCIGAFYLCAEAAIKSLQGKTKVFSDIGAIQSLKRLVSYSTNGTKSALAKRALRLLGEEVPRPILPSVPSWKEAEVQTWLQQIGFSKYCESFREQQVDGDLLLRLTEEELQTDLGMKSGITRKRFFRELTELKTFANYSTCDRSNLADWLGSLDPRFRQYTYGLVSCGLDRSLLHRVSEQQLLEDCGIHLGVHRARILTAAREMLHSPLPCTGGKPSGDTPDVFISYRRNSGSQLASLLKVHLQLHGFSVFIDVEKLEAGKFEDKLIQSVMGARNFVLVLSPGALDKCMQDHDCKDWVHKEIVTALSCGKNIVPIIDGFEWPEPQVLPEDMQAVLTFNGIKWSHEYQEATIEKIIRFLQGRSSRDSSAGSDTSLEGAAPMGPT
Assay: Biochemical Assay of the Compounds
Description: Preparation of full-length SARM1 (FL-SARM1) lysate: HEK293T cells (ATCC: CRL-3216) were grown on 150 mm TC-treated dishes to 80-90% confluency in complete DMEM (DMEM (Thermo Fisher: 11965175) supplemented with 10% HI-FBS (VWR: 10802-772), 1x Pen/Strep (Thermo Fisher: 15140122), 1x NEAA (Thermo Fisher: 1140050), 1x glutamax (Thermo Fisher: 35050061), and 1 mM sodium pyruvate (Thermo Fisher: 11360070)) at 37 °C and 5% CO2. One hour prior to transfection, the media was replaced with fresh, 37 °C complete DMEM (20 mL per one 150 mm dish) supplemented with additional 10mM glucose (Alfa Aesar AAJ60067EQE). Per one 150 mm dish, 30 µg FL-SARM1 (SEQ. ID.1; cloned in-house) plasmid was dissolved in 1 mL DMEM at ambient temperature and were mixed by inverting the tube 8-10 times.90 µL of GenJet™ in vitro DNA transfection reagent (Ver2) was dissolved in 1 mL DMEM at ambient temperature and were mixed by inverting the tube 8-10 times. The plasmid and transfection agent solutions were combined, mixed by 8-10 inversions and incubated for 10 minutes at ambient temperature.2 mL of this transfection mixture was added to each dish containing HEK293T cells as prepared above followed by a gentle mixing of 4-5 horizontal rotations. The dishes were incubated at 37 °C and 5% CO2 for 24 h. The dishes were removed from the incubator, the medium was aspirated and the cells were scraped off using cell scrapers in ice-cold 1x PBS (5 mL/dish, Thermo Fisher Scientific 10010023). The collected cells were centrifuged at 300 g for 5 minutes at 4 °C. The supernatant was aspirated and the pellet was frozen at -80 °C until needed. The cell pellet from 30 dishes was dissolved in 30 mL 1x PBS supplemented with 4 tablets of Complete, Mini EDTA-free protease inhibitor cocktail at 4 °C. This mixture was sonicated on ice for 10 minutes at 50% amplitude with a 1 second on/1 second off interval using a Model 120 sonicator (Thermo Fisher Scientific, FB120110). The lysate was centrifuged at 16000 g for 10 minutes at 4 °C.

SMILES | IC50
Cc1ccc(NC(=O)N2C3CC(C)CC2C3)cc1[C@@H]1CC[C@@H]1C#N (some centres not stated) [WO2025054369, Example 7] | < 1 µM
CC1CC2CC(C1)N2C(=O)Nc1ccc(Cl)c([C@@H]2CC[C@@H]2C#N)c1 (some centres not stated) [WO2025054369, Example 9] | < 1 µM
CC1CC2CC(C1)N2C(=O)Nc1ccc(Cl)c([C@H]2C[C@@H](F)C2)c1 (some centres not stated) [WO2025054369, Example 49] | < 1 µM
Cc1noc(C23CC(C)CC(C2)N3C(=O)Nc2ccc(Cl)c(C3CCCC3)c2)n1 (configuration not stated) [WO2025054369, Example 82] | < 1 µM
CC1CC2CC(C1)N2C(=O)Nc1ccc(Cl)c(N2CC[C@@H](O)C2)c1 (some centres not stated) [WO2025054369, Example 87] | < 1 µM
Cc1nnc(C23CC(C)CC(C2)N3C(=O)Nc2ccc(C(F)(F)F)c(C3CC(F)(F)C3)c2)o1 (configuration not stated) [WO2025054369, Example 25] | < 1 µM
C[C@@H]1C[C@@H]2C[C@H](C1)N2C(=O)Nc1ccc(Cl)c(N2CC(C#N)C2)c1 [WO2025054369, Example 91] | < 1 µM
CC1CC2CC(C1)N2C(=O)Nc1ccc(Cl)c([C@@H]2CC[C@H]2n2ccnn2)c1 (relative stereo) [WO2025054369, Example 27] | < 1 µM
Cc1ccc(NC(=O)N2C3CCCC2C3)cc1C1CCC1 [WO2025054369, Example 12] | 5.5 µM
Cc1ccc(NC(=O)N2C3CCCC2C3)cc1C1CC1 [WO2025054369, Example 22] | 5.5 µM
Cc1ccc(NC(=O)N2C3CCCC2C3)cc1N1CCN(C)C1=O [WO2025054369, Example 97] | 5.5 µM
CC1CC2CC(C1)N2C(=O)Nc1ccc(Cl)c(N2CC[C@@H]2C#N)c1 (some centres not stated) [WO2025054369, Example 71] | < 1 µM
C[C@@]1(O)CC[C@@H](c2cc(NC(=O)N3C4CC3CC(C(F)(F)F)C4)ccc2Cl)C1 (some centres not stated) [WO2025054369, Example 65] | 5.5 µM
Cc1noc(C23CC(C)CC(C2)N3C(=O)Nc2ccc(Cl)c(C3CCC3)c2)n1 (configuration not stated) [WO2025054369, Example 80] | < 1 µM
CC1CC2CC(C1)N2C(=O)Nc1ccc(Cl)c([C@@H]2CCC[C@H]2C#N)c1 (some centres not stated) [WO2025054369, Example 63] | < 1 µM
Cc1ccc(NC(=O)CC2CCC2)cc1C1CC1 [WO2025054369, Example 21] | > 10 µM
Cc1nnc([C@]23CCC[C@H](C2)N3C(=O)Nc2ccc(Cl)c(C3CCC3)c2)o1 [WO2025054369, Example 58] | > 10 µM
N#C[C@H]1CC[C@@H]1c1cc(NC(=O)N2C3CC2CC(C(F)(F)F)C3)ccc1C(F)(F)F (some centres not stated) [WO2025054369, Example 54] | < 1 µM
CC1CC2CC(C1)N2C(=O)Nc1ccc(Cl)c([C@H]2C[C@H](O)C2)c1 (some centres not stated) [WO2025054369, Example 36] | < 1 µM
Cc1ccc(NC(=O)N2C3CCCC2C3)cc1C12CC(C)(C1)C2 [WO2025054369, Example 24] | < 1 µM
CC1CC2CC(C1)N2C(=O)Nc1ccc(Cl)c([C@@H]2CC[C@]2(C)O)c1 (some centres not stated) [WO2025054369, Example 46] | < 1 µM

SMILES | IC50
CC1CC2CC(C1)N2C(=O)Nc1cc(F)c(Cl)c([C@@H]2CC[C@@H]2C#N)c1 (some centres not stated) [WO2025054369, Example 34] | < 1 µM
CC1CC2CC(C1)N2C(=O)Nc1ccc(Cl)c([C@@H]2CC[C@H]2C(F)F)c1 (some centres not stated) [WO2025054369, Example 51] | < 1 µM
Cc1nnc(C23CC(C)CC(C2)N3C(=O)Nc2ccc(Cl)c([C@@H]3C[C@@H]3C#N)c2)o1 (some centres not stated) [WO2025054369, Example 16] | 5.5 µM
O=C(Nc1ccc(Cl)c([C@H]2C[C@H](O)C2)c1)N1C2CC1CC(C(F)(F)F)C2 (some centres not stated) [WO2025054369, Example 42] | < 1 µM
C[C@@H]1C[C@@H]2C[C@H](C1)N2C(=O)Nc1ccc(Cl)c(N2CCC2)c1 [WO2025054369, Example 95] | < 1 µM
Cc1nnc(C23CC(C)CC(C2)N3C(=O)Nc2ccc(C(F)(F)F)c(C3CCC3)c2)o1 (configuration not stated) [WO2025054369, Example 2] | < 1 µM
CC1CC2CC(C1)N2C(=O)Nc1ccc(Cl)c([C@@H]2CC[C@@H]2n2nccn2)c1 (relative stereo) [WO2025054369, Example 30] | < 1 µM
CC1CC2CC(C1)N2C(=O)Nc1ccc(Cl)c([C@@H]2CC[C@H]2n2cnnc2)c1 (relative stereo) [WO2025054369, Example 31] | < 1 µM
N#C[C@H]1CC[C@H]1c1cc(NC(=O)N2C3CCC2CC(C(F)(F)F)C3)ccc1Cl (relative stereo; form 2) [WO2025054369, Example 45] | 5.5 µM
N#C[C@@H]1CC[C@H]1c1cc(NC(=O)N2C3CC2CC(C(F)(F)F)C3)ccc1C(F)(F)F (some centres not stated) [WO2025054369, Example 55] | < 1 µM
Cc1ccc(NC(=O)N2C3CC(C)CC2C3)cc1[C@H]1CC[C@H]1C#N (some centres not stated) [WO2025054369, Example 8] | < 1 µM
N#C[C@H]1CC[C@H]1c1cc(NC(=O)N2C3CC2CC(C(F)(F)F)C3)ccc1Cl (some centres not stated) [WO2025054369, Example 32] | < 1 µM
Cc1ccc(NC(=O)N2C3CC(C)CC2C3)cc1C(C)C#N (configuration not stated) [WO2025054369, Example 5] | < 1 µM
CC1CC2CC(C1)N2C(=O)Nc1ccc(Cl)c(C2CC(C)(O)C2)c1 (configuration not stated) [WO2025054369, Example 38] | < 1 µM
CC1CC2CC(C1)N2C(=O)Nc1ccc(Cl)c([C@H]2CC[C@@]2(C)O)c1 (some centres not stated) [WO2025054369, Example 47] | > 10 µM
Cc1nnc(C23CC(C)CC(C2)N3C(=O)Nc2ccc(Cl)c([C@H]3C[C@H]3C#N)c2)o1 (some centres not stated) [WO2025054369, Example 17] | < 1 µM
Cc1ccc(NC(=O)N2C3CCCC2C3)cc1C1CN(C)C1 [WO2025054369, Example 15] | 5.5 µM
CC1CC2CC(C1)N2C(=O)Nc1ccc(Cl)c([C@@H]2CC[C@H]2n2nccn2)c1 (relative stereo) [WO2025054369, Example 29] | 5.5 µM
CC1CC2CC(C1)N2C(=O)Nc1ccc(Cl)c([C@@H]2CC[C@@H]2n2ccnn2)c1 (relative stereo) [WO2025054369, Example 28] | < 1 µM
CC1CC2CC(C1)N2C(=O)Nc1ccc(Cl)c([C@@H]2CCC[C@@H]2C#N)c1 (some centres not stated) [WO2025054369, Example 60] | < 1 µM
Cc1ccc(NC(=O)N2C3CC(C)CC2C3)cc1C12CC(F)(C1)C2 (configuration not stated) [WO2025054369, Example 23] | < 1 µM

Reference: BindingDB's records for patent WO2025054369 (NICO Therapeutics, 2025)
